The text below walks through data of patent US8598145B2, “Mitochondrially delivered anti-cancer compounds” (priority 2008, dated 2013).

The test system of one assay is LNCaP, PC-3. As to conditions: Shiau et al, 2006; cited from earlier work.
The next assay has as its system MCF7. As to conditions: Arya et al; cited from earlier work.
Assay [1] deals with neoplastIc + SA mammary epithelial cells. As to conditions: cited from earlier work.
For another assay, the system named is B16(F10). The settings on record: cited from earlier work.
Assay [2] deals with Ras-transformed B9 cells with a defective Complex II. In words: Apoptosis in Ras-transformed B1 and B9 cells (FIG. 4C). Type of assay: cell-based, Chinese hamster. Here is the method: 4C—After 24 h of treatment with Complex II targeting drugs TTFA or MitoVES, Ras transformed B1 and B9 cells were assessed for apoptosis using the Annexin V binding method.
The following cell lines used in this study were obtained from ATCC, unless specified otherwise: Human T lymphoma cells Jurkat, human mesothelioma cells Meso-I, MM-BI, Ist-Mes, Ist-Mes-2 (Pass, H. I. et al. Characteristics of nine newly derived mesothelioma cell lines. Ann. Thorac. Surg. 59, 835-844 (1995)), human breast cancer cells MCF-7 (erbB2-low) and MDA-MB-453 (erbB2-high), human colorectal cells HCT-116, human hepatocarcinoma cells Huh-7, mouse mesothelioma cells AE17 (Jackaman, C. et al. IL-2 intratumoral immunotherapy enhances CD8+ T cells that mediate destruction of tumor cells and tumor-associated vasculature: a novel mechanism for IL-2. J. Immunol. 171, […] (2003), human non-malignant mesothelial cells Met-5A, […] (Claycomb, W. C. et al. HL-1 cells: a cardiac muscle cell line that contracts and retains phenotypic characteristics of the adult cardiomyocyte. Proc. Natl. Acad. Sci. USA 95, 2979-2984 […]) and H9c2, and the human endothelial-like cells EAhy926 (Edgell, C. J., McDonald, C. C. & Graham, J. B. Permanent cell line expressing human factor VIII-related antigen established by hybridization. Proc. Natl. Acad. Sci. USA 80, 3734-3737 (1983)). Jurkat cells were grown in the RPMI medium while DMEM was used for other malignant cell lines and for Met-5A cells, supplemented with 10% FCS and antibiotics. HL-1 cells, maintained in fibronectin/gelatine-coated dishes, were grown in the Claycomb medium supplemented with noradrenalin (Claycomb, W. C. et al. HL-1 cells: a cardiac muscle cell line that contracts and retains phenotypic characteristics of the adult cardiomyocyte. Proc. Natl. Acad. Sci. USA 95, 2979-2984 […]), EAhy926 cells were grown in complete DMEM supplemented with HAT (Edgell, C. J., McDonald, C. C. & Graham, J. B. Permanent cell line expressing human factor VIII-related antigen established by hybridization. Proc. Natl. Acad. Sci. USA 80, 3734-3737 (1983)). Cells deficient in mtDNA (ρ^0 phenotype) were prepared as detailed in Weber, T. et al., (Mitochondria play a central role in apoptosis induced by α-tocopheryl succinate, an agent with anticancer activity. Comparison with receptor-mediated pro-apoptotic signaling. Biochemistry 42, 4277-4291 (2003)). Acquisition of the ρ^0 phenotype was confirmed by lack of expression by the cells of the mtDNA-encoded cytochrome c oxidase subunit II (COXII not shown). […]

Another assay relates to Jurkat. In words: MTT viability assay (IC50). Type of assay: cell-based, human. The text has this: (§1) The following cell lines used in this study were obtained from ATCC, unless specified otherwise: Human T lymphoma cells Jurkat, human mesothelioma cells Meso-I, MM-BI, Ist-Mes, Ist-Mes-2 (Pass, H. I. et al. Characteristics of nine newly derived mesothelioma cell lines. Ann. Thorac. Surg. 59, 835-844 (1995)), human breast cancer cells MCF-7 (erbB2-low) and MDA-MB-453 (erbB2-high), human colorectal cells HCT-116, human hepatocarcinoma cells Huh-7, mouse mesothelioma cells AE17 (Jackaman, C. et al. IL-2 intratumoral immunotherapy enhances CD8+ T cells that mediate destruction of tumor cells and tumor-associated vasculature: a novel mechanism for IL-2. J. Immunol. 171, […] (2003), human non-malignant mesothelial cells Met-5A, […] (Claycomb, W. C. et al. HL-1 cells: a cardiac muscle cell line that contracts and retains phenotypic characteristics of the adult cardiomyocyte. Proc. Natl. Acad. Sci. USA 95, 2979-2984 […]) and H9c2, and the human endothelial-like cells EAhy926 (Edgell, C. J., McDonald, C. C. & Graham, J. B. Permanent cell line expressing human factor VIII-related antigen established by hybridization. Proc. Natl. Acad. Sci. USA 80, 3734-3737 (1983)). Jurkat cells were grown in the RPMI medium while DMEM was used for other malignant cell lines and for Met-5A cells, supplemented with 10% FCS and antibiotics. HL-1 cells, maintained in fibronectin/gelatine-coated dishes, were grown in the Claycomb medium supplemented with noradrenalin (Claycomb, W. C. et al. HL-1 cells: a cardiac muscle cell line that contracts and retains phenotypic characteristics of the adult cardiomyocyte. Proc. Natl. Acad. Sci. USA 95, 2979-2984 […]), EAhy926 cells were grown in complete DMEM supplemented with HAT (Edgell, C. J., McDonald, C. C. & Graham, J. B. Permanent cell line expressing human factor VIII-related antigen established by hybridization. Proc. Natl. Acad. Sci. USA 80, 3734-3737 (1983)). Cells deficient in mtDNA (ρ^0 phenotype) were prepared as detailed in Weber, T. et al., (Mitochondria play a central role in apoptosis induced by α-tocopheryl succinate, an agent with anticancer activity. Comparison with receptor-mediated pro-apoptotic signaling. Biochemistry 42, 4277-4291 (2003)). Acquisition of the ρ^0 phenotype was confirmed by lack of expression by the cells of the mtDNA-encoded cytochrome c oxidase subunit II (COXII not shown). Chinese hamster lung fibroblasts deficient in complex I (B10 cells) (See, B. B. et al. Molecular remedy of complex I defects: rotenone-insensitive internal NADH-quinone oxidoreductase of Saccharomyces cerevisiae mitochondria restores the NADH oxidase activity of complex I-deficient mammalian cells. Proc. Natl. Acad. Sci. USA 95, 9167-9171 (1998)) and complex II (CybL^−/−; B9 cells) (Oostveen, F. G., Au, H. C., Meijer, P. J. & Scheffler, I. E. A Chinese hamster mutant cell line with a defect in the integral membrane protein CII-3 of complex II of the mitochondrial electron transport chain. J. Biol. Chem. 270: 26104-26108 (1995)) as well as the parental cells (B1 cells) (Oostveen, F. G., Au, H. C., Meijer, P. J. & Scheffler, I. E. A Chinese hamster mutant cell line with a defect in the integral membrane protein CII-3 of complex II of the mitochondrial electron transport chain. J. Biol. Chem. 270: 26104-26108 (1995)) were grown in DMEM with 10% FCS, antibiotics, 10 mg/ml glucose and non-essential aminoacids.
(§2) Toxicity of α-TOS, VE11S (“VES”), MitoVE3S, MitoVE5S, MitoVE7S, MitoVE9S, MitoVE11S (“MitoVES”), MitoVE11AE (“MitoVEAE”), MitoVE11F (“MitoVEF”), MitoVE11M (“MitoVEM”), and VES4TPP towards cancer cells was assessed on the basis of IC50, as detailed in Turanek, J., et al. ((2008). Liposomal formulation of vitamin E analogs as an efficient and selective anti-cancer treatment. Clin. Cancer Res. (submitted)). […]
(In general: Formazan colour is commonly taken as a measure of viable cells.)

Another assay deals with Meso-2. In words: MTT viability assay (IC50). Type of assay: cell-based, human. As to conditions: Meso-2, ~60% confluency.
Text: as §1, §2

Another assay has as its system MCF-7. In words: MTT viability assay (IC50). As to conditions: MCF-7, ~60% confluency. Type of assay: cell-based, human.
Text: as §1, §2

The subject of the next assay is HL-1. In words: MTT viability assay (IC50). Type of assay: cell-based, rat. The settings on record: HL-1, ~60% confluency.
Text: as §1, §2

Another assay concerns H9c2. In words: MTT viability assay (IC50). As to conditions: H9c2, ~60% confluency. The class given is cell-based, rat.
Text: as §1, §2

For assay [3], the target named is T1, α-tocopherol transfer protein (α-TTP) (Rattus norvegicus, UniProt P41034).
T1 sequence (P41034 1-278): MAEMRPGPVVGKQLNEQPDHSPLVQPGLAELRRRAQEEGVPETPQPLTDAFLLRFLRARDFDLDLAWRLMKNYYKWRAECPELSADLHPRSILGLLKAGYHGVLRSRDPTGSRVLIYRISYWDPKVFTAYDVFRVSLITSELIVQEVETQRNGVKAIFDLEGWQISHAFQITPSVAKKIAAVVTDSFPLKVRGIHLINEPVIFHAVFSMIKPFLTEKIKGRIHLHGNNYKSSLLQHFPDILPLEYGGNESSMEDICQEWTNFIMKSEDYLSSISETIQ
As to conditions: Hosomi et al 1997; cited from earlier work.

Setting [4] is: Table VI: Jurkat 0.5 × 10^6 per ml, analogs added as EtOH solution, MTT.

`Cc1c(C)c2c(c(C)c1OC(=O)CCC(=O)O)CCC(C)(CCCC(C)CCCC(C)C)O2` (centres unmarked) [Nr 43]: in the assay on LNCaP, PC-3, the half-maximal inhibitory concentration (IC50) (commonly the concentration that inhibits the measured activity by half) was 4 to 9 µM.
Regarding `Cc1c(C)c2c(c(C)c1OCCC(=O)O)CCC(C)(CCCC(C)CCCC(C)C)O2` (centres unmarked) [Nr 44], the IC50 in the assay with LNCaP, PC-3 was 4 to 8 µM.
As to `Cc1c(C)c2c(c(C)c1OC(=O)CCC(=O)O)CCC(C)(C)O2` [Nr 46], the half-maximal inhibitory concentration (IC50) in the assay on LNCaP, PC-3 is over 100 µM.
Regarding `Cc1c(C)c2c(c(C)c1OC(=O)C(N)CCCCN)CCC(C)(CO)O2` (centres unmarked) [Nr 47], the IC50 in the assay with MCF7 was 194 µM.
On to `CCCCCOCC1(C)CCc2c(C)c(OC(=O)C(N)CCCCN)c(C)c(C)c2O1` (centres unmarked) [Nr 48], for which the IC50 in the assay with MCF7 is 22 µM.
Regarding `CCCCC(=O)OCC1(C)CCc2c(C)c(OC(=O)C(N)CCCCN)c(C)c(C)c2O1` (centres unmarked) [Nr 49], in the assay with MCF7, the IC50 was 15 µM.
Consider `CC(C)=CCCC(C)=CCCC(C)=CCCC1(C)CCc2cc(O)c(C)c(C)c2O1` (centres unmarked) [Nr 56], for which the IC50 is 4 µM in [1] and 20 µM with B16(F10).
As to `CC(C)=CCCC(C)=CCCC(C)=CCCC1(C)CCc2cc(O)cc(C)c2O1` (centres unmarked) [Nr 59], the IC50 in the assay on B16(F10) was 10 µM.
Turning to `CC(C)=CCCC(C)=CCCC(C)=CCCC1(C)CCc2cc(O)ccc2O1` (centres unmarked) [Nr 60], the IC50 in the assay on B16(F10) is 0.9 µM.
Consider `O=C(CC(=O)C(F)(F)F)c1cccs1` [TTFA, reference compound], for which the “sensitivity to apoptosis of Ras-transformed B9 cells compared to Ras-transformed B1 cells” value in [2] (24 h treatment, Annexin V binding) is “much less sensitive”. In addition, the “sensitivity after reconstitution of Complex II function (human SDHC) in Ras-transformed B9 cells” value in assay [2] (B9 cells transfected to express human SDHC) is listed as “restored the sensitivity”.
Regarding `Cc1c(C)c2c(c(C)c1OC(=O)CCC(=O)OCCCC[P+](c1ccccc1)(c1ccccc1)c1ccccc1)CCC(C)(CCCC(C)CCCC(C)CCCC(C)C)O2` (centres unmarked) [VES4TPP], the IC50 is 21 ± 5 µM with Jurkat (Jurkat, treated at 0.5 × 10^6 per ml, MTT viability curves); 21 ± 5 µM in the assay with Jurkat (setting [4]); 28 ± 6 µM in the assay with Meso-2; 19 ± 3 µM in the assay on MCF-7; over 100 µM with HL-1; over 100 µM with H9c2.
Compound `Cc1c(C)c2c(c(C)c1O)CC[C@@](C)(CCC[C@H](C)CCC[C@H](C)CCCC(C)C)O2` [α-TOH, α-tocopherol, reference compound] came in with a half-inhibitory concentration (IC50) in the assay on Jurkat (setting [4]) of over 100 µM. The “relative affinities for α-TTP” value in [3] was 100%.
In the case of `Cc1cc(O)c(C)c2c1O[C@](C)(CCC[C@H](C)CCC[C@H](C)CCCC(C)C)CC2` [β-tocopherol], the “relative affinities for α-TTP” value in assay [3] is 38%.
`Cc1c(O)cc2c(c1C)O[C@](C)(CCC[C@H](C)CCC[C@H](C)CCCC(C)C)CC2` [γ-tocopherol]: in assay [3], the “relative affinities for α-TTP” value is 9%.
As for `Cc1cc(O)cc2c1O[C@](C)(CCC[C@H](C)CCC[C@H](C)CCCC(C)C)CC2` [δ-tocopherol], in [3], the “relative affinities for α-TTP” value is on record as 2%.
